Laboratory results reported in US20250092369A1, “METHOD FOR IMPROVING TRANSCYTOSIS PROPERTIES OF HUMAN BLOOD-BRAIN BARRIER MODEL” (Wisconsin Alumni Research Foundation, priority 2023, published 2025).

Experiments:
hPSC-EPCs = settings: CHIR supplemented in hPSC-EPCs culture medium; cited from earlier work
[1] = test system: gene-edited PB-TRE-N1ICD 10(+CR2) hPSC-EPCs; experiment: FACS of CD144 (VE-cadherin) subpopulations in gene-edited 10(+CR2) hPSC-EPCs; assay type: cell-based, human; settings: doxycycline-treated population, D15
Experimental: Gene-edited PB-TRE-N1ICD hPSC-EPCs were cultured in a 6-well plate with or without doxycycline as described above (n=3* replicates for doxycycline supplemented condition, n=4 replicates for PBS supplemented condition). On D15, cells were isolated with Accutase (incubated 15 mins at 37° C., 1 mL/well), triturated, and quenched through a 40 μm cell strainer into 4× the volume of DMEM (Life Technologies) supplemented with 10% FBS (R&D Systems). An additional well of gene-edited EPCs cultured with PBS was reserved as an isotype control. Unedited hPSCs maintained in E8 medium and unedited hPSC-EPCs cultured for 6 days in hECSR supplemented with 4 μM CHIR were used as an additional negative and positive control, respectively, for FACS. Cell count was quantified using a hemocytometer and cells were centrifuged at 200×g for 5 min. Cells were resuspended in MACS buffer at a concentration of 100 μL/10^6 cells. Cells suspensions were supplemented with CD144-APC or APC-conjugated isotype control antibodies (Table 2) at a 1:50 dilution for at 4° C. for 20 min, protected from light. Cells were washed with 2 mL MACS buffer and centrifuged at 200×g for 5 min. Pellets were resuspended in 400 μL each of MACS buffer supplemented with 1 μg/mL DAPI (Invitrogen) and incubated at 4° C., protected from light.
Cells were sorted using the BD FACSAria III Cell Sorter (BD Biosciences). Gates for high or low CD144-expressing cells were determined based on two negative controls (gene-edited PB-TRE-N1ICD hPSC-derived ECs stained with APC isotype control antibody or unedited hPSCs stained with CD144-APC antibody, both negative for CD144) and one positive control (unedited hPSC-EPCs cultured with CHIR, CD144 high). After establishing gates, live gene-edited PB-TRE-N1ICD hPSC-ECs treated with or without doxycycline were sorted into tubes containing 500 μL MACS buffer and stored at 4° C.

[2] = test system: gene-edited PB-TRE-N1ICD 10(+CR2) hPSC-EPCs; experiment: Transendothelial electrical resistance (TEER); assay type: cell-based, human; settings: Dox-treated edited hPSC-EPCs at end of culture (D15), doxycycline D11-D15
[3] = test system: gene-edited PB-TRE-N1ICD hPSC-EPCs; experiment: RT-qPCR of BBB-related genes in gene-edited PB-TRE-N1ICD hPSC-EPCs + CHIR ± doxycycline; assay type: cell-based, human
Experimental: Gene-edited hPSC-derived EPCs (D5) with high post-MACS purity validated by flow cytometry were cultured on collagen IV-coated plates at approximately 4×10^4 cells/cm^2 in hECSR medium supplemented with various antibiotics, with media changes every other day. […] […] On D15, cells were collected for RT-qPCR quantification of differential gene expression between doxycycline and DPBS-treated gene-edited hPSC-EPCs.
RNA extraction was performed using the Direct-zol RNA Miniprep Kit (Zymo Research). Cells were lysed with 300-600 μL TRIzol reagent (Invitrogen, Waltham, MA) depending on the estimated cell count per sample. Cell lysates were combined with an equal volume of 100% ethanol and transferred to Zymo-Spin IICR spin columns. Columns were incubated with Rnase-free DNase I (Qiagen) to eliminate residual gDNA. Columns were washed with RNA Wash Buffer and Direct-zol RNA Pre-Wash according to Zymo RNA Miniprep Kit protocols. RNA was eluted with RNase-free water and concentration was determined using a NanoDrop 2000 spectrophotometer (Thermo Scientific). 250-1000 ng of RNA was reverse transcribed for 1 h at 37° C. using the OmniScript RT Kit (Qiagen). 1 U/μL RNaseOUT (Life Technologies) was included in the reverse-transcription reactions. Reaction products were diluted to 10 ng/μL. 20 μL qPCR reactions were carried out with 10 ng cDNA and 500 nM each forward and reverse primers (Integrated DNA Technologies, Coralville, IA [Table 1]) using PowerUp SYBR Green Master Mix (Life Technologies) or 1×Taqman Gene Expression Assay probes (Thermo Scientific [Table 1]) using Taqman Fast Advanced Master Mix (Thermo Scientific). Reactions were run on an AriaMx Real-Time PCR System (Agilent Technologies, Santa Clara, CA) using the thermal cycling program corresponding to either IDT primers or Taqman probes. An annealing temperature of 60° C. was used for all reactions.

[4] = test system: gene-edited PB-TRE-N1ICD 10(+CR2) hPSC-EPCs; experiment: Bulk RNA-sequencing of FACS-sorted gene-edited 10(+CR2) hPSC-EPC subpopulations; assay type: cell-based, human
Experimental: Ten PBS or doxycycline-treated gene-edited PB-TRE-N1ICD hPSC-derived endothelial cell subpopulations obtained via FACS were centrifuged at 200×g for 5 min. Pellets were resuspended TRIzol reagent (Invitrogen) for extraction of total RNA. RNA concentrations were quantified using the Qubit 4 Fluorometer (Invitrogen) and Qubit RNA High Sensitivity Assay Kit (Invitrogen). Purified RNA samples (≥200 ng) were sent to Novogene Corporation (Sacramento, CA) for library preparation and mRNA sequencing, with approximately 40-60 million paired end reads obtained per sample. FASTQ files were uploaded to the Galaxy^43 web platform and processed to generate a raw counts matrix using the publicly available bioinformatics server at usegalaxy.org. We ran FastQC to ensure high Phred quality scores and low percentages (<5%) adapter content (Galaxy). Illumina Universal Adapter sequences were trimmed from raw sequencing reads using Cutadapt (Galaxy). Data were aligned to the hg38 genome model using RNA STAR and raw reads per gene were determined using featureCounts. Differential expression analysis was performed in R using DESeq2^44. Heatmaps containing TPM values were generated using the pheatmap package in R. Comparison of the transcriptomic profile of […] overexpressing EPCs±Dox subpopulations to transcriptomes of established cell and tissue types was performed with […]^45.

[5] = test system: heterogeneous gene-edited hPSC-EPCs; experiment: CD31 flow cytometry in heterogeneous gene-edited hPSC-EPCs, hygromycin/doxycycline timing; assay type: cell-based, human; settings: 6 days of hygromycin reselection followed by 4 days of doxycycline treatment
Experimental: To determine CD31 expression in edited hPSC-EPCs treated with doxycycline vs. DPBS (FIG. 15A,B), hPSC-ECs were isolated at day 13, 15, or 17, dissociated with Accutase as previously stated, quenched in DMEM supplemented with 10% FBS through a cell strainer, centrifuged, and resuspended in MACS buffer (100 μL/10^6 cells) supplemented with CD31-APC or APC isotype control antibodies at a 1:50 dilution. Cells were incubated at 4° C. for 20 min, protected from light. Cells were washed with 2 mL MACS buffer and centrifuged at 200×g for 5 min. Pellets were resuspended in 500 μL each of 4% PFA in DPBS and incubated 15 min at room temperature, protected from light. Cells were centrifuged at 200×g for 5 min and pellets were resuspended in 400 μL MACS buffer. Samples were run on an Attune NxT V6 flow cytometer with excitation at 633 nm. APC emission was detected with a 670/14 filter. Data were analyzed with Flow Jo software.

[6] = test system: gene-edited PB-TRE-N1ICD hPSC-EPCs; experiment: Fluorescent albumin accumulation assay in gene-edited PB-TRE-N1ICD hPSC-EPCs; assay type: cell-based, human; settings: PBS-treated 10(+CR2) cells, 30 min pretreatment: 3 mM MβCD, 20 µM CPZ or 2 μM rottlerin
Experimental: Fixable, Alexa Fluor 647-conjugated bovine serum albumin (BSA) (Invitrogen) was used as a substrate to estimate total fluid-phase endocytosis. […] Similarly, D6 cultures of HUVECs treated with GFP or N1ICD LV were pre-treated with or without 3 mM MβCD for 30 min at 37° C. Cells were washed once with sterile DPBS and then incubated in hECSR (for hPSC-EPCs) supplemented with 5 μg/mL BSA or 1:1000 diluted DPBS, 1:100 diluted CD144-FITC or FITC isotype control antibody, and 4 μM Hoechst 33342 (Life Technologies) or EGM-2 media (for HUVECs) supplemented with 5 μg/mL BSA or 1:1000 diluted DPBS and 4 μM Hoechst 33342 at 4° C. or 37° C. for 2 h on a rotating platform at 30 rpm, protected from light. Cells were then washed 3 times with 4° C. sterile DPBS to stop the assay and wash away any extracellular BSA. Internalization of fluorescent BSA was visualized using an Eclipse Ti2-E epifluorescence microscope (Nikon, Tokyo, Japan) with a 20× objective.
Flow cytometry was used to quantify accumulated BSA fluorescence within cells. […] FITC emission was detected with a 530/30 filter and AlexaFluor 647 emission was detected with a 670/14 filter. Data were analyzed with Flow Jo software.

[7] = clone 10(+CR2), 6d H+4d D, 1 μg/mL doxycycline vs PBS, D15
[8] = clone 10(+CR2), 6d P+4d D vs PBS control

Structure (SMILES): Cc1c[nH]c(-c2cnc(NCCNc3ccc(C#N)cn3)nc2-c2ccc(Cl)cc2Cl)n1 [CHIR, CHIR99021]
- increase in normalized SLC2A1 expression (TPM) (hPSC-EPCs): ~750 fold

Structure (SMILES): C[C@H]1c2cccc(O)c2C(=O)C2=C(O)[C@]3(O)C(=O)C(C(N)=O)=C(O)[C@@H](N(C)C)[C@@H]3[C@@H](O)[C@@H]21 [doxycycline, doxycycline hyclate]
- cells with high CD144 expression [1]: ~25%
- cells with low but not absent CD144 expression [1]: ~65%
- CD144+ cells ([1]; live cells): ~90%
- average TEER [2]: less than 10 Ω·cm^2
- decrease in CDH5 expression ([3]; clone 3(+Y) hPSC-EPCs, highest doxycycline dose, D11-D15): ~2 fold
- downregulation of TJP1 ([3]; clone 10(+CR2), 2d P+4d D+4P vs PBS control): ~2 fold
- upregulation in MFSD2A ([3]; clone 10(+CR2), 6d H+4d D and 6d P+4d D vs PBS control (6d H+4d P), D15): 60- to 100 fold
- decrease in expression of CDH5 [3, 7]: ~3 fold
- increase in MFSD2A expression [3, 7]: ~50 fold
- increase in SLC2A1 expression [3, 7]: > 20 fold
- increase in expression of ABCB1 [3, 7]: ~2 fold
- increase in expression of ABCC1 [3, 7]: ~2 fold
- increase in expression of ABCG2 [3, 7]: ~2 fold
- upregulation in N1ICD expression [3, 7]: ~8 fold
- increase in CDH2 ([3]; clone 10(+CR2), 6d P+4d D and 2d P+4d D+4P vs PBS control): ~2 fold
- increase in ABCC1 [3, 8]: 7 fold
- increase in ABCG2 [3, 8]: 4 fold
- increase in FN1 [3, 8]: ~12 fold
- upregulation of CLDN5 [3, 8]: ~2 fold
- reduction in CDH5 ([3]; clone 10(+CR2), 6d P+4d D vs PBS control, significant): ~2 fold
- reduction in CDH5 ([3]; clone 10(+CR2), other doxycycline-treated conditions vs PBS control, non-significant): ~1.7 fold
- increase in NOTCH1 expression (TPM) ([4]; Dox CD144 hi vs PBS CD144 hi): ~2 fold
- increase in NOTCH1 expression (TPM) ([4]; Dox CD144 lo vs PBS CD144 hi): ~7 fold
- percentage of CD31+ cells [5]: ~90%

Structure (SMILES): CC(=O)c1c(O)c(C)c(O)c(Cc2c(O)c3c(c(C(=O)/C=C/c4ccccc4)c2O)OC(C)(C)C=C3)c1O [rottlerin]
- fluorescent albumin accumulation after endocytosis inhibitor pretreatment [6]: but not with rottlerin
